Measured values reported in patent US20050209157A1, “Short bioactive peptides and methods for their use” (priority 2001, published 2005).
≈ marks a conversion by molar mass, not a printed value. Where two headings read alike, the source gives them in different places. No end group written: not given here.

How the values were obtained:
[1] = in vitro; format: cell-based, human; conditions: human, human red blood cells
Procedure: This hemolytic assay is based upon that presented in Journal of Peptide Research 53: 82-90 (1999). […] All procedures were performed according to safety protocols pertaining to the handling and disposal of human body fluids.
Red blood cells (RBCs) were washed three times with PBS (35 mM phosphate buffer 0.15 M NaCl, pH 7.0). RBCs suspended in PBS (0.4% (v/v); about 10 ml per 15 peptides) were prepared. Suspensions (100 μl) were aliquoted to each sample and control tube. Serially diluted peptide solutions (100 μl) were pipetted into the sample tubes. Negative control tubes contained 100 μl PBS; positive control tubes contained 100 μl 1% Triton-X100 detergent. All tubes were incubated for 1 hour at 37° C. The tubes were removed from the incubator and centrifuged at 1000 g for 5 minutes. Supernatant (100 μl) was pipetted to a 96-well polyvinyl chloride plate. The absorbance at 414 nm (A414) was measured, and used to calculate the percent hemolysis according to the following formula. [formula]

[2] = in vitro; conditions: human, WI38 normal lung fibroblast cells
[3] = system: MCF7; assay: Anti-cancer assay, MTT, LD50; format: cell-based; conditions: MCF7 breast adenocarcinoma line, MTT, 24 hours with peptide
Excerpt: (§1) Numbers are LD50 values (μg/mL).

[4] = system: BMKC; assay: Anti-cancer assay, MTT, LD50; format: cell-based; conditions: BMKC cloned melanoma line, 24 hours with peptide
Excerpt: as §1

[5] = system: H1299; assay: Anti-cancer assay, MTT, LD50; format: cell-based; conditions: 24 hours with peptide, lung large cell carcinoma
Excerpt: as §1

[6] = system: HeLaS3; assay: Anti-cancer assay, MTT, LD50; format: cell-based; conditions: 24 hours with peptide, cervical carcinoma
Excerpt: as §1

[7] = system: PC3; assay: Anti-cancer assay, MTT, LD50; format: cell-based; conditions: 24 hours with peptide, prostate adenocarcinoma
Excerpt: as §1

[8] = system: SW480; assay: Anti-cancer assay, MTT, LD50; format: cell-based; conditions: SW480 colon adenocarcinoma line, 24 hours with peptide
Excerpt: as §1

[9] = system: WI38; conditions: MTT, 24 hours with peptide; normal fibroblast line
[10] = pH 7, Table 26, valine substitution, read-out: Hemolysis RBC LD50
[11] = WI-38 LD50, Table 26, valine substitution
[12] = pH 7, hemolytic assay, concentration at 50% hemolysis, 1 hour at 37° C., read-out: LD50
[13] = LD50 WI38, WI38 normal lung fibroblast line, MTT, 24 hours with peptide

Row | Compound | HC50 at 1 h [1, 10] | LD50 MCF7 [3] | CC50 at 24 h [2, 13] | other results
1 | VALALKALKKL-NH2 [compound 180] | 850 µg/mL |  |  | CC50 at 24 h [2, 11]: 1000 µg/mL
2 | VAKKLAKLAKKLLAL-NH2 [compound 505] | 620 µg/mL |  |  | CC50 at 24 h [2, 11]: 85 µg/mL
3 | VAKFLAKFLKKAL-NH2 [compound 502] | 100 µg/mL |  |  | CC50 at 24 h [2, 11]: 64 µg/mL
4 | GIGKFLHSAKKFGKAFVGGIMNS-NH2 [P16, reference compound] |  |  |  | HC50 at 1 h [1, 12]: 550 µg/mL
5 | VAKFLAKFLKKAL-NH2 [P502, VAKFLAKFLKKAL-NH2] |  |  |  | HC50 at 1 h [1, 12]: 100 µg/mL
6 | VALALKALKKLAKKLKKLAKKAL-NH2 [compound 509] | 40 µg/mL |  |  | CC50 at 24 h [2, 11]: 95 µg/mL
7 | VAKKLAKLAKKLLAL-NH2 [FLAK43 AM V] |  | 86 µg/mL | 85 µg/mL | 
8 | FAKKLAKKLKKLAKKLIGAVLKV-OH [SHIVA 11 [(1-16)ME(2-9]-COOH] |  | 95 µg/mL | 34 µg/mL | LD50 BMKC [4]: 94 µg/mL; H1299 LD50 [5]: 54 µg/mL; HeLaS3 LD50 [6]: 180 µg/mL; PC3 LD50 [7]: 28 µg/mL; LD50 SW480 [8]: 120 µg/mL; WI38 LD50 [9]: 34 µg/mL
9 | VAKFLAKFLKKAL-NH2 [FLAK50 Q1V] |  | 92 µg/mL | 64 µg/mL | 
10 | FALLKALLKKAL-NH2 [Flak 961] |  |  |  | H1299 LD50 [5]: 240 µg/mL; HeLaS3 LD50 [6]: 380 µg/mL; PC3 LD50 [7]: 120 µg/mL; CC50 at 24 h ([2]; WI38 LD50, MTT, 24 hours with peptide, normal fibroblast line): 270 µg/mL
11 | VALALKALKKLAKKLKKLAKKAL-NH2 [FLAK04 AM V] |  | 84 µg/mL | 95 µg/mL | 
12 | VAKALKALLKALKAL-NH2 [P501, VAKALKALLKALKAL-NH2] |  |  |  | HC50 at 1 h [1, 12]: 15 µg/mL
13 | CC(C)C[C@H](NC(=O)[C@H](C)NC(=O)[C@H](CC(C)C)NC(=O)[C@H](C)NC(=O)[C@H](CC(C)C)NC(=O)[C@H](CCCCN)NC(=O)[C@H](C)NC(=O)[C@H](CC(C)C)NC(=O)[C@H](CCCCN)NC(=O)[C@H](CCCCN)NC(=O)[C@H](C)NC(=O)[C@H](CC(C)C)NC(=O)[C@H](CCCCN)NC(=O)[C@H](C)NC(=O)[C@H](CC(C)C)NC(=O)[C@H](CCCCN)NC(=O)[C@H](CCCCN)NC(=O)[C@H](C)NC(=O)[C@@H](N)C(C)C)C(N)=O [compound 504] | 70 µg/mL |  |  | CC50 at 24 h [2, 11]: 110 µg/mL (≈ 55.3 µM)
14 | VALALKALKKALKKLKKALKKAL-OH [HECATE AC V] |  | 160 µg/mL | 190 µg/mL | 
15 | VALALKALKKLLKKLKKLAKKAL-NH2 [03 AMV] |  | 62 µg/mL | 77 µg/mL | 
16 | FAKKFAKKFKKFAKKFAKFAFAF-NH2 [compound 301] | 10 µg/mL |  |  | 
17 | VAKLLAKALKKLL-NH2 [FLAK50D V] |  | 45 µg/mL | 75 µg/mL | 
